According to US20220411422A1, “ERBB RECEPTOR INHIBITORS” (Dizal (Jiangsu) Pharmaceutical Co., Ltd., priority 2018, published 2022):
Entries after “also recorded” stand apart in the source; their conditions may differ.

Key:
[1] = Blood brain barrier penetration assay in rats (short oral absorption model with blood, plasma and brain binding); format: in vivo; settings: male, Han Wistar, CSF, Table 5, rat, read-out: Kp,uu,CSF
Experimental: In vitro blood, plasma and brain binding assay was carried out with equilibrium dialysis device. […] At the end of incubation, a 50 μL aliquot from the receiver side and a 5 μL from the donor chamber were taken. The 5 μL sample was further diluted with 45 μL of blank blood, plasma or brain homogenate. Paired samples were matrix-matched with either buffer or blank matrix, and mixed for 2 min, and then precipitated with 150 μL cold acetonitrile with 100 ng/mL tolbutamide as internal standard. After centrifuging at 4000 rpm for 20 min, supernatant was diluted with 0.1% formic acid aqueous solution and analyzed for LC/MS/MS (API 4000, Applied Biosystems, Foster City). […] D is dilution factor. […] A Short oral absorption (SOA) model is an in-vivo screening model to identify brain penetration of a compound. Six male Han Wistar rats purchased from Beijing Vital River were orally dosed with the compound. […] Brain tissue was harvested and homogenized in 3× volume of 100 mM phosphate buffered saline (pH7.4). All samples were stored at ˜−70° C. prior to LC/MS/MS analysis. Standards were prepared by spiking blank plasma, blood, brain homogenate and artificial CSF. […] After 2 min vortex and 5 min centrifugation at 14,000 rpm, supernatant was analyzed by LC/MS/MS (API 4000, Applied Biosystems, Foster City). Two sets of standard curves were run at the beginning and end of each batch from blood sample analysis. For brain and CSF samples, one standard curve was analyzed along with test samples. Total brain levels, expressed as brain/blood ratio (Kp,brain) were measured by AUC(brain)/AUC(blood or plasma) in rodents after oral administration. Similarly, CSF levels represented by a ratio of CSF/blood exposure (Kp,CSF) were determined by AUC(CSF)/AUC(blood or plasma). Free fraction of test compound in biological matrix was determined by in vitro blood and brain binding assay. Kp,uu brain and Kp,uu CSF was calculated by the following equation: Kp,uu brain=AUC(brain)/AUC(blood or plasma)×(fubrain/fublood/plasma) and […] Moreover, the ability of Compounds 6 and 16 to cross BBB was assessed in both rat and monkey by measuring unbound brain-to-plasma partition ratio (Kpuu,brain) and unbound CSF-to-plasma partition ratio (Kpuu,CSF) with the method mentioned above.

[2] = Blood brain barrier penetration assay in monkeys; format: in vivo; settings: CSF, oral; Table 5; monkey
Experimental: In vitro blood, plasma and brain binding assay was carried out with equilibrium dialysis device. Diluted blood (1:1 with DPBS pH7.4), EDTA-anticoagulated plasma, and brain homogenate (1:3 with DPBS pH7.4) were spiked with 5 μM test compound (in triplicate) and dialyzed against equal volume of 150 μL 100 mM PBS buffer (pH7.4) at 37° C. for appropriate equilibration time in a slowly rotated plate. At the end of incubation, a 50 μL aliquot from the receiver side and a 5 μL from the donor chamber were taken. The 5 μL sample was further diluted with 45 μL of blank blood, plasma or brain homogenate. […] After centrifuging at 4000 rpm for 20 min, supernatant was diluted with 0.1% formic acid aqueous solution and analyzed for LC/MS/MS (API 4000, Applied Biosystems, Foster City). Unbound fraction (fu) of test compound were calculated by the ratio of the buffer side response to the brain homogenate/plasma/blood side response, and unbound fraction (fu,bl, fu,pl and fu,br) of test compound in non-diluted blood and tissue were calculated from measured fu in homogenate and diluted blood with the following equation: fu,bl (fu,br)=(1/D)/[(1/fu−1)+1/D)]. […]
Total brain levels, expressed as brain/blood ratio (Kp,brain) were measured by AUC(brain)/AUC(blood or plasma) in rodents after oral administration. […]
Kp,uu brain and Kp,uu CSF was calculated by the following equation: […]

[3] = test system: BT474 SC, BM and LM xenograft models; assay: In vivo anti-tumor potency in SC, BM and LM xenograft mouse models

## COc1cc(O[C@H]2CCN(C)CC2(F)F)c2c(Nc3ccc(Oc4ccn5ncnc5c4)c(C)c3)ncnc2c1 (single isomer, unassigned) [Compound 6]
[1]
  Kp uu: 0.87
[2]
  Kp uu: 4.1
[3]; BM and LM models
  anti-tumor activity compared to Tucatinib, Neratinib and Pyrotinib: superior to Tucatinib, Neratinib and Pyrotinib
[3]; BT474 SC, BM and LM xenograft models, 25-150 mg/kg
  anti-tumor activity, monotherapy: potent anti-tumor activity; also recorded: profound tumor regression
[3]; SC model
  anti-tumor activity compared to Tucatinib, Neratinib and Pyrotinib: comparable to them
